From US20060019410A1, “Apparatus, kits and methods for evaluating binding interactions, for detecting and quantifying binding molecules, and for sample preparation” (Qualyst, Inc., priority 2004, published 2006)

Columns and labels:
[1] = reported; cited from earlier work
[2] = test system: AAG; conditions: reported; cited from earlier work
[3] = target: T1, HSA (Homo sapiens, UniProt P02768); conditions: 1 μM drug + 1 μM DS in HSA; 10 mg DCC bed
Procedure: Set-Up of Incubation Study. […] Allow samples to sit at room temperature for one hour.
DCC Extraction Procedure; Protein Precipitation Procedure; Final Sample Preparation. Performed as described in Example 1 and 3.
Chemical Analysis. The analysis of DS and the internal standard is conducted with liquid chromatography coupled to mass spectrometry with electrospray ionization. For a given sample, the peak area of the DS and the internal standard are measured and a ratio (PAR) of these two values is determined.

[4] = target: T1, HSA; assay: percent recovery from HSA with the 96-well ACCUPRO DCC device; assay type: in vitro ADME
Procedure: Chemical Analysis. […] For a given sample, the peak areas of the particular drug and its internal standard are measured and a ratio of these two values is determined. The peak area ratio (PAR) of the (+) DCC-extracted sample is divided by its corresponding (−) DCC extracted sample PAR to determine a percent recovery value. This recovery value is not a % HSA bound value.
Preparation of DCC plate. Prepare a DCC filter plate with 5 mg and 10 mg bed sizes as described in Example 1 and 3.
Set-Up of Incubation Study.

T1 sequence (P02768 25-609): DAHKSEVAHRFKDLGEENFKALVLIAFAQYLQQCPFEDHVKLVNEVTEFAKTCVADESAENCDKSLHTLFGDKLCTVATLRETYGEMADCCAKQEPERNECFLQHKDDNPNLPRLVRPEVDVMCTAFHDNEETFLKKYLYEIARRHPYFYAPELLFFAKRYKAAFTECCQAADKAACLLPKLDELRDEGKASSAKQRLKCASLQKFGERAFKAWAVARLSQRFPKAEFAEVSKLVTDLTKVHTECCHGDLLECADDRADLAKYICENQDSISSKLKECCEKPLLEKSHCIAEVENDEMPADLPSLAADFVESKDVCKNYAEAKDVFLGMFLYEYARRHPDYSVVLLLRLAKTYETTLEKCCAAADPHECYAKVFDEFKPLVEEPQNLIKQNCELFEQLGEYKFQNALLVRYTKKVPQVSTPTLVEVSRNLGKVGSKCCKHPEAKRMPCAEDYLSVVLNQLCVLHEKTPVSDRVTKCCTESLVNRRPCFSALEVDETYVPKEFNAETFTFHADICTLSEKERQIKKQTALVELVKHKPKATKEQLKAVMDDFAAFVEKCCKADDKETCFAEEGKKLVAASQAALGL

Row | DS (dansylsarcosine) PAR in final sample preparation [3] | percent recovery (relative ranking) ([4]; HSA, naproxen versus ketorolac) | percent recovery from HSA ([4]; drug at 1 μM, 5 mg and 10 mg DCC bed, compared with the usual concentrations (217 μM and 0.5 μM)) | Structure (SMILES) | plasma bound [1] | affinity to AAG / HSA [2]
1 | – | – | – | CN(C)CCCN1c2ccccc2Sc2ccc(Cl)cc21 [Chlorpromazine] | 95-98% | high affinity to AAG and not HSA
2 | higher PAR | lower percent recovery | comparable to values obtained above | O=C(c1ccccc1)c1ccc2n1CCC2C(=O)O (centres unmarked) [Ketorolac] | – | –
